According to patent US20100204118A1, “USE OF GRF-1 (1-29 ) AND CORTICOTROPIN-RELEASING FACTOR AS THERAPEUTIC AGENTS” (priority 2007, published 2010):
Ends that are not written are not given here.

Key:
HIV-1IIB = experiment: HIV-1 antiviral assay in CEM-SS cells (MTS readout); format: cell-based
HCMV strain AD169 = experiment: HCMV plaque reduction assay in MRC-5 cells; format: cell-based; settings: for inhibition of HCMV plaque formation as compared to the virus control experiment: 10 micrograms per ml, 7-10 days
[1] = system: hepatitis B virus (HBV) ayw strain; experiment: HBV experimental assay system, HepG2-2.2.15, TaqMan PCR of secreted HBV DNA; format: cell-based; settings: 10 micrograms per ml; six days; HBV DNA in supernatant
Excerpt: HepG2-2.2.15 is a stable cell line containing the hepatitis B virus (HBV) ayw strain genome (ATCC Cat. No. CRL-11997). Antiviral compounds blocking any late step of viral replication such as transcription, translation, pregenome encapsidation, reverse transcription, particle assembly and release can be identified and characterized using this cell line. In this assay, an active compound will reduce the production of secreted HBV from cells, measured by utilizing real time quantitative PCR (TaqMan) assay to directly and accurately measure HBV DNA copies.
HepG2-2.2.15 cells were plated in 96-well microtiter plates. After 16-24 hours the confluent monolayer of HepG2-2.2.15 cells was washed and the medium was replaced with complete medium containing test peptides—10 micrograms per ml—in duplicate. […] Six days following the initial administration of the peptides, the cell culture supernatants was collected, treated with pronase and DNAse and then used in a real-time quantitative TaqMan PCR assay. The PCR-amplified HBV DNA was detected in real-time by monitoring increases in fluorescence signals that result from the exonucleolytic degradation of a quenched fluorescence probe molecule that hybridizes to the mplified HBV DNA. […] Antiviral activity was calculated from the reduction in HBV DNA levels (% virus control). […]

[2] = system: Primary Human endothelial cells (HUVEC); experiment: Endothelial cell migration assay; format: cell-based; settings: 10 micrograms per ml, 22 hours
murine spleen cells = experiment: Th1/Th2 cytokine profiling assay (Ovalbumin-restimulated spleen cells, CBA kit); format: cell-based, mouse; settings: 10 micrograms per ml; 72 hours after Ovalbumin restimulation
A549 cells = experiment: Apoptosis induction assay (Annexin-5); format: cell-based, human; settings: 10 micrograms per ml, 24 hours
HUVEC = experiment: Endothelial tube formation assay; format: cell-based, human; settings: 10 micrograms per ml, 20 hours
Procedure: The endothelial tube formation assay is based on the ability of endothelial cells to form three-dimensional capillary-like tubular structures when cultured on a gel of basement membrane extract. The endothelial tube formation assay represents a powerful model for studying inhibition and induction of angiogenesis. Pre-labeled HUVEC with Calcein AM were seeded in a 96-well culture plate coated with extracellular metrix (Chemicon international Cat. ECM625) and treated with test peptides-10 micrograms per ml-in full growth medium. […] control was vehicle only. […] Duplicate wells for each treatment were photographed and quantitatevily analyzed for an average tubule length using image analysis software ImageProPlus. Raw data were expressed as average tubule […]±standard deviation. Statistic p values were computed using the Student's t-test.

Compound | antiviral activity of positive control compounds (HIV-1) (HIV-1IIB) | inhibition of HBV replication as compared to the virus control infection [1] [%] | production of IL-2, induced by (murine spleen cells) [%] | production of IL-5, decreased by (murine spleen cells) | production of TNF-alpha, induced by (murine spleen cells) [%] | inhibition of HCMV plaque formation as compared to the virus control experiment (HCMV strain AD169) [%] | inhibition of the tube formation of human endothelial cells (HUVEC) | also measured
Cc1cn([C@H]2C[C@H](N=[N+]=[N-])[C@@H](CO)O2)c(=O)[nH]c1=O [AZT] | expected levels of antiviral activity |  |  |  |  |  |  | 
Nc1nc(O)c2ncn(COC(CO)CO)c2n1 [Ganciclovir, reference compound] |  |  |  |  |  |  |  | antiviral activity of positive control compound (HCMV) (HCMV strain AD169; positive control): expected levels of antiviral activity
CC(C)(C)NC(=O)[C@@H]1CN(Cc2cccnc2)CCN1C[C@@H](O)C[C@@H](Cc1ccccc1)C(=O)N[C@H]1c2ccccc2C[C@H]1O [indinavir] | expected levels of antiviral activity |  |  |  |  |  |  | 
Ser-Glu-Glu-Pro-Pro-Ile-Ser-Leu-Asp-Leu-Thr-Phe-His-Leu-Leu-Arg-Glu-Val-Leu-Glu-Met-Ala-Arg-Ala-Glu-Gln-Leu- Ala-Gln-Gln-Ala-His-Ser-Asn-Arg-Lys-Leu-Met-Glu-Ile-Ile-N H2 (SEEPPISLDLTFHLLREVLEMARAEQLAQQAHSNRKLMEII-NH2) [Peptide 2] |  | 57.2 | 66.5 | 93.0 | 38.1 | 3.2 | did not inhibit | inhibition of the migration of human endothelial cells (in words) [2]: did not inhibit; production of IFN-gamma, induced by (murine spleen cells): 44.1%; production of IL-4, induced by (murine spleen cells): 78.1%; induction of apoptosis on human lung cells (A549 cells): 0.9%
Tyr-Ala-Asp-Ala-Ile-Phe-Thr-Asn-Ser-Tyr-Arg-Lys-Val-Leu-Gly-Gln-Leu-Ser-Ala-Arg-Lys-Leu-Leu-Gln-Asp-Ile-Met-Ser-Arg-NH2 (YADAIFTNSYRKVLGQLSARKLLQDIMSR-NH2) [Peptide 1] |  | 30.5 | 30.9 | 33.0 | 55.5 | 0.7 | did not inhibit | inhibition of the migration of human endothelial cells [2]: 9%; change of the production of IL-4 (in words) (murine spleen cells): did not significantly change; production of IFN-gamma, decreased by (murine spleen cells): 29.0; induction of apoptosis on human lung cells (in words) (A549 cells): did not show any significant induction of apoptosis
